Earlier results on one sequence are cited in patent US8048906B2, “Optically pure and enriched isomers of chelating ligands and contrast agents” (Catalyst Medical, priority 2003, dated 2011).

For this data set the following is noted: binds to HA; peptide isolated from a random 12-mer phage peptide library (Mummert et al., J. Exp. Med. 2000).

Regarding GAHWQFNALTVR, the Kd (usually the equilibrium constant for the complex coming apart) was about 1000 nM.
